Read-outs that look alike come from different tables or passages of the source.
Columns and labels:
Pyricularia oryzae [1] = assay type: in vivo; details: added to the water, 52 days after treatment
Pyricularia oryzae [2] = assay type: in vivo; details: added to the water, 126 day after treatment
[3] = Granules 50 g/kg, dose 100 g/ha
[4] = Granules 50 g/kg, dose 250 g/ha
[5] = Granules 50 g/kg, dose 500 g/ha
[6] = Granules 50 g/kg, dose 1000 g/ha
[7] = SO 30 g/L (Example 1), dose 50 g/ha
[8] = SO 30 g/L (Example 1), dose 100 g/ha
[9] = SO 30 g/L (Example 1), dose 250 g/ha
[10] = SO 30 g/L (Example 1), dose 500 g/ha
[11] = SO 30 g/L (Example 1), dose 1000 g/ha

## C[C@H](Nc1c(-c2c(F)cc(F)cc2F)c(Cl)nc2ncnn12)C(F)(F)F [(S)-Azolopyrimidine C, 5-chloro-6-(2,4,6-trifluorophenyl)-7-(1,1,1-trifluoroprop-2-ylamino)-[1,2,4]triazolo[1,5-a]pyrimidine]
Pyricularia oryzae [1]; [3]
  Percent rice leaf blast control, control (%): 78%
Pyricularia oryzae [1]; [4]
  Percent rice leaf blast control, control (%): 86%
Pyricularia oryzae [1]; [5]
  Percent rice leaf blast control, control (%): 90%
Pyricularia oryzae [1]; [6]
  Percent rice leaf blast control, control (%): 95%
Pyricularia oryzae [1]; Granules 50 g/kg, dose 1500 g/ha
  Percent rice leaf blast control, control (%): 97%
Pyricularia oryzae [1]; [7]
  Percent rice leaf blast control, control (%): 84%
Pyricularia oryzae [1]; [8]
  Percent rice leaf blast control, control (%): 89%
Pyricularia oryzae [1]; [9]
  Percent rice leaf blast control, control (%): 95%
Pyricularia oryzae [1]; [10]
  Percent rice leaf blast control, control (%): 97%
Pyricularia oryzae [1]; [11]
  Percent rice leaf blast control, control (%): 98%
Pyricularia oryzae [2]; [3]
  Percent rice danicle blast control, control (%): 39%
Pyricularia oryzae [2]; [4]
  Percent rice danicle blast control, control (%): 44%
Pyricularia oryzae [2]; [5]
  Percent rice danicle blast control, control (%): 67%
Pyricularia oryzae [2]; [6]
  Percent rice danicle blast control, control (%): 82%
Pyricularia oryzae [2]; [7]
  Percent rice danicle blast control, control (%): 22%
Pyricularia oryzae [2]; [8]
  Percent rice danicle blast control, control (%): 44%
Pyricularia oryzae [2]; [9]
  Percent rice danicle blast control, control (%): 67%
Pyricularia oryzae [2]; [10]
  Percent rice danicle blast control, control (%): 78%
Pyricularia oryzae [2]; [11]
  Percent rice danicle blast control, control (%): 84%

Reference: patent US6387848B1, “Non-aqueous concentrated spreading oil composition” (priority 2000, dated 2002)
